Assay results reported in ChEMBL document CHEMBL4513161, “CO-ADD screening of MMV (CH) - Pandemic Response Box” (2021).
≈ marks a conversion by molar mass, not a printed value.

Key:
Acinetobacter baumannii [1] = conditions: ASSAY_TEST Inhibition of Bacterial Growth; detection method Absorption (OD600); MEDIA CAMHB; plate type 384well; NBS; CORNING #3640; time 18 hr
Description: (§1) Antibacterial activity against Acinetobacter baumannii ATCC 19606 (CO-ADD:GN_034); MIC in CAMBH media using NBS plates, by OD600

Pseudomonas aeruginosa [2] = experiment: Antibacterial activity against Pseudomonas aeruginosa PAO397 [PAO1 d(mexAB-oprM) d(mexCD-oprJ) d(mexEF-oprN) d(mexJKL) d(mexXY) d(opmH)] (CO-ADD:GN_211); MIC in CAMBH media using NBS plates, by OD(600); format: functional; conditions: ASSAY_TEST Inhibition of Bacterial Growth, detection method Absorption (OD600), MEDIA CAMHB, plate type 384well, CORNING #3640, time 18 hr
Staphylococcus aureus [3] = conditions: ASSAY_TEST Inhibition of Bacterial Growth; detection method Absorption (OD600); MEDIA CAMHB; plate type 384well; NBS; CORNING #3640; time 18 hr
Description: (§2) Antibacterial activity against Staphylococcus aureus MRSA ATCC 43300 (CO-ADD:GP_020); MIC in CAMBH media, using NBS plates, by OD(600)

Escherichia coli [4] = conditions: ASSAY_TEST Inhibition of Bacterial Growth; detection method Absorption (OD600); MEDIA CAMHB; plate type 384well; NBS; CORNING #3640; time 18 hr
Description: (§3) Antibacterial activity against Escherichia coli ATCC 25922 (CO-ADD:GN_001); MIC in CAMBH media using NBS plates, by OD(600)

HEK293 = experiment: cells; format: functional, Homo sapiens, ATCC CRL1573
Klebsiella pneumoniae [5] = conditions: ASSAY_TEST Inhibition of Bacterial Growth; detection method Absorption (OD600); MEDIA CAMHB; plate type 384well; NBS; CORNING #3640; time 18 hr
Description: (§4) Antibacterial activity against Klebsiella pneumoniae MDR ATCC 70063 (CO-ADD:GN_003); MIC in CAMBH media using NBS plates, by OD(600)

Pseudomonas aeruginosa [6] = conditions: ASSAY_TEST Inhibition of Bacterial Growth; detection method Absorption (OD600); MEDIA CAMHB; plate type 384well; NBS; CORNING #3640; time 18 hr
Description: (§5) Antibacterial activity against Pseudomonas aeruginosa ATCC 27853 (CO-ADD:GN_042); MIC in CAMBH media using NBS plates, by OD(600)

Candida albicans [7] = conditions: ASSAY_TEST Inhibition of Fungal Growth; detection method Absorption (OD530); plate type 384well; NBS; CORNING #3640
Description: (§6) Antifungal activity against Candida albicans ATCC 90028 (CO-ADD:FG_001); MIC in YNB media using NBS plates, by OD630

Pseudomonas aeruginosa [8] = experiment: microbe, parasite or virus in culture; conditions: ATCC 27853, 18 h, ASSAY_TEST Inhibition of Bacterial Growth, detection method Absorption (OD600), MEDIA CAMHB, plate type 384well, NBS, CORNING #3640
Description: as §5

Acinetobacter baumannii [9] = experiment: microbe, parasite or virus in culture; conditions: ATCC 19606, 18 h, ASSAY_TEST Inhibition of Bacterial Growth, detection method Absorption (OD600), MEDIA CAMHB, plate type 384well, NBS, CORNING #3640
Description: as §1

Escherichia coli [10] = experiment: microbe, parasite or virus in culture; conditions: ATCC 25922, 18 h, ASSAY_TEST Inhibition of Bacterial Growth, detection method Absorption (OD600), MEDIA CAMHB, plate type 384well, NBS, CORNING #3640
Description: as §3

Candida albicans [11] = experiment: microbe, parasite or virus in culture; conditions: ATCC 90028, ASSAY_TEST Inhibition of Fungal Growth, detection method Absorption (OD530), plate type 384well, NBS, CORNING #3640
Description: as §6

Staphylococcus aureus [12] = experiment: microbe, parasite or virus in culture; conditions: ATCC 43300, 18 h, ASSAY_TEST Inhibition of Bacterial Growth, detection method Absorption (OD600), MEDIA CAMHB, plate type 384well, NBS, CORNING #3640
Description: as §2

Klebsiella pneumoniae [13] = experiment: microbe, parasite or virus in culture; conditions: ATCC 700603, 18 h, ASSAY_TEST Inhibition of Bacterial Growth, detection method Absorption (OD600), MEDIA CAMHB, plate type 384well, NBS, CORNING #3640
Description: as §4

[14] = Homo sapiens, ATCC CRL1573, HEK293, ASSAY_TEST Inhibition of Cell Viability, detection method Resazurin, Fluorescence (ex560/em590), MEDIA DMEM with 10% FBS, plate type 384well, TC, CORNING #3712, time 18 hr, read-out: CC50
[15] = ASSAY_TEST Inhibition of Cell Viability, detection method Resazurin, Fluorescence (ex560/em590), MEDIA DMEM with 10% FBS, plate type 384well, TC, CORNING #3712, time 18 hr, read-out: CC50

Description for Cryptococcus neoformans: Antifungal activity against Cryptococcus neoformans H99 ATCC 208821 (CO-ADD:FG_002); MIC in YNB media using NBS plates, by Resazurin OD(600-570)

Row | Structure (SMILES) | MIC (Acinetobacter baumannii [1]) [µM] | MIC (Pseudomonas aeruginosa [2]) [µM] | MIC (Staphylococcus aureus [3]) [µM] | MIC (Escherichia coli [4]) | CC50 (HEK293; [14]) [µM] | MIC (Klebsiella pneumoniae [5]) [µM] | MIC (Pseudomonas aeruginosa [6]) [µM] | MIC (Candida albicans [7]) | MIC (Cryptococcus neoformans) [µM] | CC50 (HEK293; Homo sapiens, ATCC CRL1573, HEK293, 18 h) [µM] | CC50 (HEK293; [15]) [µM] | MIC (Pseudomonas aeruginosa [8]) [µM] | MIC (Acinetobacter baumannii [9]) [µM] | MIC (Escherichia coli [10]) [µM] | MIC (Candida albicans [11]) [µM] | MIC (Staphylococcus aureus [12]) [µM] | MIC (Klebsiella pneumoniae [13]) [µM]
1 | CO[C@@]1(NC(=O)Cc2cccs2)C(=O)N2C(C(=O)O)=C(COC(N)=O)CS[C@@H]21 [CEFOXITIN] | >20 | > 20 | >20 | 5 µM (≈ 2.14 µg/mL) | > 20 | >20 | >20 | >20 µM | > 20 | – | – | – | – | – | – | – | –
2 | CC(C)/N=c1\cc2n(-c3ccc(Cl)cc3)c3ccccc3nc-2cc1Nc1ccc(Cl)cc1 [CLOFAZIMINE] | >20 | > 20 | 20 (≈ 9.47 µg/mL) | >20 µM | > 20 | >20 | >20 | >20 µM | > 20 | – | – | – | – | – | – | – | –
3 | O=c1[nH]cnc2c1ncn2[C@H]1CC[C@@H](CO)O1 [DIDANOSINE] | >20 | > 20 | >20 | >20 µM | > 20 | >20 | >20 | >20 µM | > 20 | – | – | – | – | – | – | – | –
4 | OC(Cn1cncn1)(Cn1cncn1)c1ccc(F)cc1F [FLUCONAZOLE] | >20 | > 20 | >20 | >20 µM | > 20 | >20 | >20 | 2.5 µM (≈ 0.766 µg/mL) | > 20 | – | – | – | – | – | – | – | –
5 | Nc1nc(=O)[nH]cc1F [FLUCYTOSINE] | >20 | > 20 | >20 | >20 µM | > 20 | >20 | >20 | 1.25 µM (≈ 0.161 µg/mL) | 1.25 (≈ 0.161 µg/mL) | – | – | – | – | – | – | – | –
6 | CCC(C)n1ncn(-c2ccc(N3CCN(c4ccc(OCC5COC(Cn6cncn6)(c6ccc(Cl)cc6Cl)O5)cc4)CC3)cc2)c1=O (centres undefined) [ITRACONAZOLE] | >20 | > 20 | >20 | >20 µM | > 20 | >20 | >20 | <=0.1562 uM | ≤ 0.156 | – | – | – | – | – | – | – | –
7 | CC(=O)N1CCN(c2ccc(OCC3COC(Cn4ccnc4)(c4ccc(Cl)cc4Cl)O3)cc2)CC1 (centres undefined) [KETOCONAZOLE] | >20 | 20 (≈ 10.6 µg/mL) | >20 | >20 µM | – | >20 | >20 | 0.3125 µM (≈ 0.166 µg/mL) | 5 (≈ 2.66 µg/mL) | > 20 | – | – | – | – | – | – | –
8 | C[C@H]1COc2c(N3CCN(C)CC3)c(F)cc3c(=O)c(C(=O)O)cn1c23.C[C@H]1COc2c(N3CCN(C)CC3)c(F)cc3c(=O)c(C(=O)O)cn1c23.O [LEVOFLOXACIN] | 10 | ≤ 0.156 | 2.5 | <=0.1562 uM | – | 5 | 2.5 | >20 µM | > 20 | – | > 20 | – | – | – | – | – | –
9 | CC(=O)Oc1ccccc1C(=O)Nc1ncc([N+](=O)[O-])s1 [NITAZOXANIDE] | >20 | > 20 | >20 | >20 µM | 8.59 | >20 | >20 | >20 µM | > 20 | – | – | – | – | – | – | – | –
10 | CC(=O)NC[C@H]1CN(c2ccc(N3CCSCC3)c(F)c2)C(=O)O1 [SUTEZOLID] | >20 | 20 (≈ 7.07 µg/mL) | 5 (≈ 1.77 µg/mL) | >20 µM | – | >20 | >20 | >20 µM | > 20 | – | > 20 | – | – | – | – | – | –
11 | NC(=S)N/N=C/c1ncccc1N [TRIAPINE] | – | 20 (≈ 3.91 µg/mL) | – | – | 2.83 | – | – | – | > 20 | – | – | > 20 | > 20 | > 20 | > 20 | > 20 | > 20
12 | COc1cc(Cc2cnc(N)nc2N)cc(OC)c1OC [TRIMETHOPRIM] | >20 | 5 (≈ 1.45 µg/mL) | 5 (≈ 1.45 µg/mL) | 2.5 µM (≈ 0.726 µg/mL) | – | 5 (≈ 1.45 µg/mL) | 20 (≈ 5.81 µg/mL) | >20 µM | > 20 | – | > 20 | – | – | – | – | – | –
13 | COc1cc(NCc2ccc3nc(N)nc(N)c3c2C)cc(OC)c1OC [TRIMETREXATE] | – | 0.625 (≈ 0.231 µg/mL) | – | – | > 20 | – | – | – | > 20 | – | – | 5 (≈ 1.85 µg/mL) | > 20 | 10 (≈ 3.69 µg/mL) | > 20 | 1.25 (≈ 0.462 µg/mL) | > 20
14 | Cc1onc(-c2ccccc2)c1-c1ccc(S(N)(=O)=O)cc1 [VALDECOXIB] | – | > 20 | – | – | > 20 | – | – | – | > 20 | – | – | > 20 | > 20 | > 20 | > 20 | > 20 | > 20
15 | O=C(/C=C\n1cnc(-c2cc(C(F)(F)F)cc(C(F)(F)F)c2)n1)NNc1ccccn1 [VERDINEXOR] | – | > 20 | – | – | > 20 | – | – | – | > 20 | – | – | > 20 | > 20 | > 20 | > 20 | > 20 | > 20
16 | CCOC(=O)N[C@@H]1CC[C@@H]2[C@@H](C1)C[C@H]1C(=O)O[C@H](C)[C@H]1[C@H]2/C=C/c1ccc(-c2cccc(F)c2)cn1 [VORAPAXAR] | – | > 20 | – | – | > 20 | – | – | – | > 20 | – | – | > 20 | > 20 | > 20 | > 20 | > 20 | > 20
